Assay [1] addresses LSD1 (KDM1A) (Homo sapiens, UniProt O60341). As to the kind of experiment: Histone demethylase assay, purified enzyme panel. The assay is classed as biochemical. The following applies: 58B1, 10 μM. The source says:
(§1) Histone Demethylase Assay
(§2) To further examine the effects of 58B1 on histone demethylase, we screened a panel of purified histone demethylases was screened.

Assay [2] has as its target T1, JMJD2A (KDM4A) (Homo sapiens, UniProt O75164).
T1 sequence (O75164 1-1064): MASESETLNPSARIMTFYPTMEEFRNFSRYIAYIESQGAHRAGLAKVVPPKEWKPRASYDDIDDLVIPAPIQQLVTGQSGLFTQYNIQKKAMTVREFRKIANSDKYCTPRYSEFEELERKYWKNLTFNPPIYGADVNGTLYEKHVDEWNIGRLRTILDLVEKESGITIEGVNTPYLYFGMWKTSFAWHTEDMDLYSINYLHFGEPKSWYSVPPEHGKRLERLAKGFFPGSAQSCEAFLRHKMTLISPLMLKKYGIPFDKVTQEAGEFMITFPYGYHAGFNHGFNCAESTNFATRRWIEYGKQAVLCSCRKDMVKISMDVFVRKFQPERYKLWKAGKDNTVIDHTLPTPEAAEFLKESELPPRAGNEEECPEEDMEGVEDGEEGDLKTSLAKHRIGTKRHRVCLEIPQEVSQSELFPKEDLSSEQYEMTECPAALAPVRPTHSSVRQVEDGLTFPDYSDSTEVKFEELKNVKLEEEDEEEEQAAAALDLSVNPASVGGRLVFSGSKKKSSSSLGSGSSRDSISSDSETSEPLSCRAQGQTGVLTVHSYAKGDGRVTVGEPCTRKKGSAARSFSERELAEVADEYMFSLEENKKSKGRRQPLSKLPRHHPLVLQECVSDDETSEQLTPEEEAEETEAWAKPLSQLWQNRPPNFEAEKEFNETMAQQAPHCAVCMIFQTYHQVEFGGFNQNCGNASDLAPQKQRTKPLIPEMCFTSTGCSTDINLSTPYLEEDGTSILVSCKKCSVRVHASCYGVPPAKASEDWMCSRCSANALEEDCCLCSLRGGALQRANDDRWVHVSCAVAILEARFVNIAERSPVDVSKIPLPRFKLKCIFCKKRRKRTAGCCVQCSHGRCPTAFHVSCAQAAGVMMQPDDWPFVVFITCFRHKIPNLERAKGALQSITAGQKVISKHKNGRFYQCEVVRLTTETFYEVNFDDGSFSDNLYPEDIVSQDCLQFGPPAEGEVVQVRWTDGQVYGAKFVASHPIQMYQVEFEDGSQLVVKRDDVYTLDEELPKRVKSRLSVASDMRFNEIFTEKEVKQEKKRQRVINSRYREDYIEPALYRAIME
As to the kind of experiment: Histone demethylase assay, purified enzyme panel. The assay is classed as biochemical. As to conditions: 58B1, 10 μM.
From the text: as §1, §2

The target of assay [3] is UTX (KDM6A) (Homo sapiens, UniProt O15550). As to the kind of experiment: Histone demethylase assay, purified enzyme panel. The following applies: 58B1, 10 μM. Type of assay: biochemical.
From the text: as §1, §2

The subject of assay [4] is Wnt signaling. The experiment in a line: TOPFlash (Wnt) reporter assay in stable HEK293T cell line. The assay is classed as cell-based. The source says:
Wnt signaling is a key target for multiple human cancers, including but not limited to colon cancer, liver cancer, and lung cancer. To identify novel Wnt regulators by high throughput screening, a stable HEK293T cell line containing the TOPFlash reporter was established. Since β-catenin is often activated by mutations in the Wnt pathway, it is important to inhibit Wnt signaling downstream of β-catenin activity. Therefore, the screen was specifically designed to identify Wnt inhibitors that target events downstream of β-catenin. The Wnt signaling was activated by treating cells with lithium chloride to inhibit GSK3 and to stabilize β-catenin, mimicking the constitutively active Wnt signaling in cancer cells. Through this screen, a family of novel Wnt inhibitors that inhibited Wnt signaling at a 0.5-10 μM concentrations (Table 1) was identified.
After 6 h, the cells were treated with 25 mM LiCl to activate Wnt signaling. The inhibition ratio of each compound was determined (Table 1).
For the SAR studies, 58B1 (VMS-7-133) was re-synthesized. Additionally, SD70, a commercial KDM4 inhibitor, was both purchased and re-synthesized (VMS-7-175). […] VMS-7-195 is a biotinylated analog of 58B1. […] Specific KDM inhibitors may be used to target specific KDMs, such as KDM3A, which is highly expressed in many human cancers.
Identification of a CBA-1 as a novel Wnt inhibitor. The present inventors routinely use TOPFlash reporter assay for Wnt inhibitor screening. To mimic the constitutively active Wnt signaling found in CRC cells, Wnt signaling was activated by inhibiting GSK3 and stabilizing β-catenin. From screening in house small-molecule libraries, CBA-1 (FIG. 4) was identified that inhibited Wnt signaling in TOPFlash reporter assay. To validate the screening results, CBA-1 was tested in CRC cells.

The structures appear in SMILES notation.

Chain of UTX (KDM6A) (O15550 whole entry): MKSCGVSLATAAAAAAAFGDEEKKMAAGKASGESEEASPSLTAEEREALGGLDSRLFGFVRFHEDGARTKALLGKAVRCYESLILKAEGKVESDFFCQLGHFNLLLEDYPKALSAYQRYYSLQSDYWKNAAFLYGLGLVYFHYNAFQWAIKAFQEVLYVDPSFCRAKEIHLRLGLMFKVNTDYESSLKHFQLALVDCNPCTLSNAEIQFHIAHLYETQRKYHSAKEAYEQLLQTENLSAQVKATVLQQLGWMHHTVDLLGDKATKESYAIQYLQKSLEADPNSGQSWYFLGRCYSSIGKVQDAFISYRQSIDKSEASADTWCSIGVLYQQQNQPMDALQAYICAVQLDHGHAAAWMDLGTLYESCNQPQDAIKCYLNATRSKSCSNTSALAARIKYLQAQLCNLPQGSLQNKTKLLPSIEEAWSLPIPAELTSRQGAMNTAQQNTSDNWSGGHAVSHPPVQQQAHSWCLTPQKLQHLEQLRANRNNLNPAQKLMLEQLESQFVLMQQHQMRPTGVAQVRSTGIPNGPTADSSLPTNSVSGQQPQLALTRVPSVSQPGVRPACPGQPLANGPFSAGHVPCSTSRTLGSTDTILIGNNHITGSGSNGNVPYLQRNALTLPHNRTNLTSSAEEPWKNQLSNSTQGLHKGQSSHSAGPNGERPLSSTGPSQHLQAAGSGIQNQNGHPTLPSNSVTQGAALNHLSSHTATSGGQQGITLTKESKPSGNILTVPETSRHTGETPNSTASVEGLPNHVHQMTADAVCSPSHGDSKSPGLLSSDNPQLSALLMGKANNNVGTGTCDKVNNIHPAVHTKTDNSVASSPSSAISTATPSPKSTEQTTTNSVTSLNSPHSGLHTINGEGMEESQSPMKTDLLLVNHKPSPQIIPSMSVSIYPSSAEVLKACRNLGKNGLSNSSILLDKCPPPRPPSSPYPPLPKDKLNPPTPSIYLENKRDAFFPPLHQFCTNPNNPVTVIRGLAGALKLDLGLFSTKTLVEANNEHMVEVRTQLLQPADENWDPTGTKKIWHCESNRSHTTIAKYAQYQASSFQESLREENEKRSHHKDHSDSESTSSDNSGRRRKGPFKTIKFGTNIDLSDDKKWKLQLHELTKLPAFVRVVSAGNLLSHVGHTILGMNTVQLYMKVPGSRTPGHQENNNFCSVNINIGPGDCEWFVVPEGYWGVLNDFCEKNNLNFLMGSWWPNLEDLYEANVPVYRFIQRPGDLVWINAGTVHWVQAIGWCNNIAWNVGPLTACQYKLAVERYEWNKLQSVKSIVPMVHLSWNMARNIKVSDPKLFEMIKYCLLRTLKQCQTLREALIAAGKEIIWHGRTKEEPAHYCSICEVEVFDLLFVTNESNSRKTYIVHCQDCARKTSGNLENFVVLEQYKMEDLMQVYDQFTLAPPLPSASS

With `CCCC(=O)NC(c1ccc(N(CC)CC)cc1)c1cc(Cl)c2cccnc2c1O` (stereo not drawn) [58B1], the inhibition at 10 µM turned out to be 32% in assay [1], 64% in assay [2] and 100% in assay [3]. The molecule further had an inhibition in assay [4] (Homo sapiens, HEK-293T, Table 1, HEK293T TOPFlash, 25 mM LiCl after 6 h) of 95%. In addition, the inhibition at 1 µM in assay [4] (Homo sapiens, HEK-293T, Table 3, Wnt reporter assay at 1 μM, read-out: Percent inhibition at 1 μM) is 90.9%. In assay [4] (screening of in house libraries), the “Wnt signaling in TOPFlash reporter assay” value was “inhibited”.

(Values after patent publication US12599597B2, “Substituted N-benzhydrylacetamide inhibitors of jumanji domain histone demethylases for the treatment of cancer” (University of Kentucky Research Foundation, priority 2020, dated 2026).)
